Patent publication US20070099962A1, “5,6-Dihydropyrin-2-one compounds useful as inhibitors of thrombin” (priority 2003, published 2007)

Target: T1, Human α-thrombin (Homo sapiens, UniProt P00734)
T1 construct: Human α-thrombin, Sigma Chemical Co. or Hematologic Technologies; purchased Sigma Chemical Co. or Hematologic Technologies
Assay: Test B: Determination of Thrombin Inhibition with a Chromogenic, Robotic Assay
Type: biochemical
Conditions: chromogenic substrate S-2366, 40 minutes incubation at 37° C.
From the text: The thrombin clotting time (TT) is expressed as absolute values (seconds) as well as the ratio of TT without inhibitor (TT0) to TT with inhibitor (TTi). The latter ratios (range 1-0) are plotted against the concentration of inhibitor (log transformed) and fitted to sigmoidal dose-response curves according to the equation y=a/[1+(x/IC50)^s] where: a=maximum range, i.e. 1; s=slope of the dose-response curve; and IC50=the concentration of inhibitor that doubles the clotting time. The calculations are processed on a PC using the software program GraFit Version 3, setting equation equal to: Start at 0, define end=1 (Erithacus Software, Robin Leatherbarrow, Imperial College of Science, London, UK). […]
The thrombin inhibitor potency is measured with a chromogenic substrate method, in a Plato 3300 robotic microplate processor (Rosys AG, CH-8634 Hombrechtikon, Switzerland), using 96-well, half volume microtitre plates (Costar, Cambridge, Mass., USA; Cat No 3690). Stock solutions of test substance in DMSO (72 μL), 0.1-1 mmol/L, are diluted serially 1:3 (24+48 μL) with DMSO to obtain ten different concentrations, which are analysed as samples in the assay. […] The linear absorbance increment during 40 minutes incubation at 37° C. is used for calculation of percentage inhibition for the test samples, as compared to blanks without inhibitor. […]

IC50 | Structure (SMILES)
0.0256 µM | CC1=C(CC(=O)NCc2ccc(C(=N)N)cc2)C(=O)N(NS(=O)(=O)c2cccc3ccccc23)CC1 [2(iii), N-(4-Carbamimidoylbenzyl)-2-[4-methyl-1-(naphthalene-1-sulfonylamino)-2-oxo-1,2,5,6-tetrahydropyridin-3-yl]acetamide]
0.24 µM | CC1=C(CC(=O)NCc2ccc(C(=N)N)cc2)C(=O)N(NS(=O)(=O)Cc2ccccc2)CC1 [2(i), N-(4-Carbamimidoylbenzyl)-2-(4-methyl-2-oxo-1-phenylmethanesulfonylamino-1,2,5,6-tetrahydropyridin-3-yl)acetamide]
